Source: US9169492B2, “Compositions and methods for enhanced parvovirus transduction” (priority 2011, dated 2015)
Peptide text beside a SMILES is read from it. * marks the point of attachment. Cbz = O=C(OCc1ccccc1)*

Legend:
[1] = Bortezomib dose tolerability in mice without AAV vector; format: in vivo
Procedure: The primary objective of these studies was to validate in small and large animal “combination therapy” using FDA approved drug bortezomib and AAV transgene vectors. The present studies describe the use of the proteasome inhibitor, bortezomib (also known as Velcade®), as this is the only proteasome inhibitor currently approved for clinical use by the FDA. Bortezomib, like most chemotherapy is dosed based on body surface area. For all large animal studies, the FDA-approved dose of (1.3 mg/m^2) was used. However preclinical toxicity data has established a safe bortezomib dose for mice of 0.5 mg per kilogram of body weight^23. […] Even though the dosing in mice was calculated on a per kilogram body weight basis vs. clinically recommended body surface area, the total dose used in mice is roughly equivalent to total dose used in dog studies described herein.

FVIII−/− mice [2] = assay: Canine FVIII activity (Coatest) in plasma of hemophilia A mice after portal vein AAV.cFVIII with or without proteasome inhibitor; format: in vivo, mouse; conditions: for week at which FVIII activity became detectable: AAV2.cFVIII vector, drug rows = co-administered with this vector (FIG. 2C); for enhanced factor VIII expression on average: hemophilia mice
Procedure: (§1) To avoid anticipated antibody-mediated immune responses to the canine FVIII transgene, all FVIII^−/− mice received cyclophosphamide (Sigma Aldrich, St Louis, Mo.) injected intraperitoneally in 3 doses of 100 μg each on days −3, 0, and +3, as previously described^5.
(§2) Canine FVIII activity in mouse plasma was measured by the Coatest SP4 kit (Chromogenix, DiPharma, West Chester, Ohio) following the manufacture's instruction with modification. Normal canine plasma (regarded as 100 percent activity=1 IU/ml) was serially diluted into FVIII^−/− pooled mouse plasma to generate the standard curve. Neutralizing antibodies to canine FVIII in mouse were measured by the Bethesda assay using a START 4 Coagulation Analyzer as described^42 (Diagnostica Stago, Asnières, France). Human factor IX was measured based on one-stage factor IX activity assay (FIX-specific aPTT) as previously described, using a START 4 Coagulation Analyzer (Diagnostica Stago, Asnières, France)^43.
Studies were carried out to analyze the effect of combination therapy using large transgene cassette FVIII in hemophilic A mice using the same genetic background (C57B1/6). […] Virus was characterized for total particle number by qPCR, virion integrity by electron microscopy, capsid ratio by silver stain, and DNA genome size by alkaline gel electrophoresis.

FIX−/− mice = assay: Human factor IX activity (one-stage FIX-specific aPTT) in hemophilia B mice after portal vein AAV.hFIX with or without bortezomib; format: in vivo, mouse; conditions: 20 weeks
Procedure: as §1, §2
Studies were conducted to test the effect of combination therapy using bortezomib on in vivo correction of hemophilic animals. First, a vector carrying a genome approximately the same size as wild type AAV was used for the correction of hemophilia B in a mouse model. […]

FVIII−/− mice [3] = assay: Liver ALT, AST and complete blood counts in vector-treated hemophilia A mice; format: in vivo, mouse; conditions: mice receiving vector alone or in combination with bortezomib
Text: In these mice, canine factor VIII peaked at 8 weeks, then began to decrease. […] Bortezomib co-administration improved initial and sustained canine factor VIII expression. […] To facilitate comparison of the proteasome inhibitor effect upon vectors generated from wtAAV-sized factor IX transgene and oversized factor VIII transgene, the same time points are graphed in FIGS. 2A and 2B (factor IX) and FIGS. 2C and 2D (factor VIII). Bortezomib treatment was associated with a proportionately greater augmentation of the oversize transgene expression than that of the smaller transgene.

Factor VIII−/− mice = assay: Expression from codon-optimized AAV8 factor VIII vector with or without bortezomib; format: in vivo, mouse; conditions: ssAAV8 3×10^10 vg/animal portal vein + bortezomib 0.5 mg/kg; persisted 12 weeks
Procedure: Factor VIII^−/− mice received 3×10^10 vg/animal single strand AAV serotype 8 vector encoding an oversized factor VIII transgene (n=5 mice per treatment group). The canine factor VIII cDNA sequence incorporated in the vector was engineered for optimal mammalian codon usage and GC nucleotide content. Mice received vector infusion to portal vein either alone or in combination with 0.5 mg/kg of proteasome inhibitor bortezomib (PI). While it has been established that codon-optimization increases expression from clotting factor VIII and IX vectors, it was not established whether PI could further augment the more efficient codon-optimized vectors.

hemophilia A dogs = assay: Tolerability of vector and bortezomib in hemophilia A dogs; format: in vivo, dog; conditions: no liver transaminase elevations, neurologic symptoms or changes in hematologic parameters
Procedure: Using identical AAV cFVIII vector cassettes, studies were carried out to determine whether proteasome inhibitor augmentation of the expression of large transgenes translates to the canine hemophilia A model. […] Four hemophilia A pups received the same AAV therapy and received a single I.V. dose of the proteasome inhibitor bortezomib at FDA-approved dose of (1.3 mg/m^2). […] Specifically, no liver transaminase elevations, neurologic symptoms or changes in hematologic parameters were observed.

[4] = preclinical toxicity data (ref 23); cited from earlier work
293T cells = assay: FACScan analysis of GFP expression in AAV2.GFP-transduced cells with or without bortezomib; format: cell-based; conditions: AAV2.GFP transduction and bortezomib co-administration
Procedure: 293T cells were grown in Dulbecco's modified Eagle's medium (Mediatech, Herndon, Va.) supplemented with 9% fetal bovine serum and 1% penicillin/streptomycin solution and transduced at a multiplicity of infection of 1. At 3-5 days after transduction, cells were harvested, fixed in phosphate-buffered saline (PBS) containing 2% formaldehyde/0.2% glutaraldehyde, and analyzed by FACScan as previously described^40.

[5] = bortezomib co-administered with AAV2 cFVIII vector

Row | SMILES | tolerability ([1]; 0.5 mg/kg, without AAV vector) | tolerability ([1]; higher dose 1.0 mg/kg) | week at which FVIII activity became detectable (FVIII−/− mice [2]) [week] | factor VIII activity maintained for a year (FVIII−/− mice [2]; [5]) | peak factor VIII activity at week 8 (FVIII−/− mice [2]; [5]) [IU/ml] | persistence of enhanced expression without further proteasome inhibitor treatment (FVIII−/− mice [2]; hemophilic mice) [year] | FVIII expression increased on average vs vector alone (FVIII−/− mice [2]; mouse, in vivo) [%] | factor VIII expression higher on average vs AAV8.cFVIII vector alone (FVIII−/− mice [2]; mouse, in vivo) [%] | enhanced factor VIII expression on average (FVIII−/− mice [2]; single dose of bortezomib given with AAV2 factor VIII vector) [%] | enhanced factor VIII expression on average (FVIII−/− mice [2]; single dose of bortezomib given with AAV8 factor VIII vector) [%] | higher factor IX activity vs vector alone (FIX−/− mice; bortezomib single dose co-administered with AAV8 factor IX vector) [%] | increase in factor IX expressed vs vector alone (FIX−/− mice; bortezomib single dose with ssAAV2.FIX) [%] | liver ALT, AST and complete blood counts (FVIII−/− mice [3]) | expression of codon-optimized factor VIII (Factor VIII−/− mice) | tolerability (hemophilia A dogs) | safe bortezomib dose for mice [4] | percentage of cells expressing transgene (293T cells) | effect on factor VIII expression (FVIII−/− mice [2]; mouse, in vivo)
1 | CC(C)C[C@H](NC(=O)[C@H](Cc1ccccc1)NC(=O)c1cnccn1)B(O)O [bortezomib] | tolerated the proteasome inhibitors without apparent side effect or change in hematologic parameters | occasionally mice receiving this dose displayed decreased activity and feeding | 1 | more than 3% | 0.11±0.06 | > 1 | > 550 | 259 | ~600 | ~300 | ~24 | 83 | did not show any evidence of hepatic or hematologic toxicity | augmented expression | well tolerated | 0.5 mg per kilogram of body weight | increase | –
2 | CC(C)C[C@@H](C=O)NC(=O)[C@H](CC(C)C)NC(=O)[C@H](CC(C)C)NC(=O)OCc1ccccc1 [MG-132] (Cbz-Leu-Leu-Leu-aldehyde) | – | – | 2 | – | – | – | > 150 | – | – | – | – | – | – | – | – | – | – | slightly increased factor VIII expression was observed in the first month
